Tests used:
Experiment in all cases: competitive isoTOP-ABPP
Type in all cases: binding
[1] = target: T1, GOLGB1 Golgin subfamily B member 1 (Homo sapiens, UniProt Q14789); settings: for isoTOP-ABPP reactivity ratio at lysine Q14789_K103 / isoTOP-ABPP ratio (R) at liganded lysine Q14789_K103: 50 uM, in vitro; for isoTOP-ABPP reactivity ratio at lysine Q14789_K103: 231 sol; for isoTOP-ABPP ratio (R) at liganded lysine Q14789_K103: sol, 231; for isoTOP-ABPP ratio, lysine Q14789_K103: 50 uM_231_sol_in vitro
T1 construct: isoTOP-ABPP experiments performed in cell lysates (in vitro); endogenous in cells; host or cells: soluble proteome of human cancer cell lines (MDA-MB-231, Ramos, Jurkat)
Method in brief: (§1)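 Readout: isotopic light/heavy MS1 peak-area ratio (R, DMSO heavy over compound light), median across peptides sharing a modified lysine. Lysate received fragment (activated esters 50 μM, guanidinylating agents 100 μM final) or DMSO, then 0.1 mM STP-alkyne probe for 1 h at ambient temperature.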

[2] = target: T2, MTOR Serine/threonine-protein kinase mTOR (Homo sapiens, UniProt P42345); settings: for isoTOP-ABPP reactivity ratio at lysine P42345_K2066 / isoTOP-ABPP ratio (R) at liganded lysine P42345_K2066: 50 uM, in vitro; for isoTOP-ABPP reactivity ratio at lysine P42345_K2066: 231 sol; for isoTOP-ABPP ratio (R) at liganded lysine P42345_K2066: sol, 231; for isoTOP-ABPP ratio, lysine P42345_K2066: 50 uM_231_sol_in vitro
T2 construct: isoTOP-ABPP experiments performed in cell lysates (in vitro); endogenous in cells; host or cells: soluble proteome of human cancer cell lines (MDA-MB-231; Ramos and Jurkat also prepared)
Method in brief: as §1

OLA1 Obg-like ATPase 1 = target: T3, OLA1 Obg-like ATPase 1 (Homo sapiens, UniProt Q9NTK5); settings: for isoTOP-ABPP reactivity ratio at lysine Q9NTK5_K248 / isoTOP-ABPP ratio (R) at liganded lysine Q9NTK5_K248: 50 uM, in vitro; for isoTOP-ABPP reactivity ratio at lysine Q9NTK5_K248: 231 sol; for isoTOP-ABPP ratio (R) at liganded lysine Q9NTK5_K248: sol, 231; for isoTOP-ABPP ratio, lysine Q9NTK5_K248: 50 uM_231_sol_in vitro
T3 construct: endogenous in cells; host or cells: MDA-MB-231 (soluble fraction of lysate)
Method in brief: as §1

[3] = target: T4, RQCD1 Cell differentiation protein RCD1 homolog (Homo sapiens, UniProt Q92600); settings: for isoTOP-ABPP reactivity ratio at lysine Q92600_K230 / isoTOP-ABPP ratio (R) at liganded lysine Q92600_K230: 50 uM, in vitro; for isoTOP-ABPP reactivity ratio at lysine Q92600_K230: 231 sol; for isoTOP-ABPP ratio (R) at liganded lysine Q92600_K230: sol, 231; for isoTOP-ABPP ratio, lysine Q92600_K230: 50 uM_231_sol_in vitro
T4 construct: isoTOP-ABPP experiments performed in cell lysates (in vitro); endogenous in cells; host or cells: soluble proteome of human cancer cell lines (MDA-MB-231; Ramos and Jurkat also prepared)
Method in brief: as §1

[4] = target: T5, TRAP1 Heat shock protein 75 kDa, mitochondrial (Homo sapiens, UniProt Q12931); settings: for isoTOP-ABPP reactivity ratio at lysine Q12931_K699 / isoTOP-ABPP ratio (R) at liganded lysine Q12931_K699: 50 uM, in vitro; for isoTOP-ABPP reactivity ratio at lysine Q12931_K699: 231 sol; for isoTOP-ABPP ratio (R) at liganded lysine Q12931_K699: sol, 231; for isoTOP-ABPP ratio, lysine Q12931_K699: 50 uM_231_sol_in vitro
T5 construct: isoTOP-ABPP experiments performed in cell lysates (in vitro); endogenous in cells; host or cells: soluble proteome of human cancer cell lines (MDA-MB-231, Ramos, Jurkat)
T5 sequence (Q12931 60-704): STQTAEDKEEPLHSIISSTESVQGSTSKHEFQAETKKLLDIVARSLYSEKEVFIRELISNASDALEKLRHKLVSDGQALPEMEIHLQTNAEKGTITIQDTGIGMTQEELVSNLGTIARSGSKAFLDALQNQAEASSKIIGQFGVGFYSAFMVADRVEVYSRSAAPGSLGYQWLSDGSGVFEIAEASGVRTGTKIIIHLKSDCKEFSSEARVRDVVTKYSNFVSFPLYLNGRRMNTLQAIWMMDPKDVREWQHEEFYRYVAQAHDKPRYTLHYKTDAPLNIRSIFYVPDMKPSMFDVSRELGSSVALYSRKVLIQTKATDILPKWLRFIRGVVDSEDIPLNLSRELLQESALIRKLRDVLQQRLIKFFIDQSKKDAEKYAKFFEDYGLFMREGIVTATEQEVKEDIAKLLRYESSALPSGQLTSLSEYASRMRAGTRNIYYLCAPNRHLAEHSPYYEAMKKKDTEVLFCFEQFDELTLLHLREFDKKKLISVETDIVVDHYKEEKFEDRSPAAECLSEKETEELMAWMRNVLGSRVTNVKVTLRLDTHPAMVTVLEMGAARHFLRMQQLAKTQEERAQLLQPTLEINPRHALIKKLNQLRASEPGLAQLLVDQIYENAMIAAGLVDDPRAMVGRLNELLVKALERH
Method in brief: as §1

[5] = target: T6, UCHL5 Ubiquitin carboxyl-terminal hydrolase isozyme L5 (Homo sapiens, UniProt Q9Y5K5); settings: for isoTOP-ABPP reactivity ratio at lysine Q9Y5K5_K323 / isoTOP-ABPP ratio (R) at liganded lysine Q9Y5K5_K323: 50 uM, in vitro; for isoTOP-ABPP reactivity ratio at lysine Q9Y5K5_K323: 231 sol; for isoTOP-ABPP ratio (R) at liganded lysine Q9Y5K5_K323: sol, 231; for isoTOP-ABPP ratio, lysine Q9Y5K5_K323: 50 uM_231_sol_in vitro
T6 construct: endogenous in cells; host or cells: MDA-MB-231 (soluble fraction of lysate)
T6 sequence (Q9Y5K5 1-329): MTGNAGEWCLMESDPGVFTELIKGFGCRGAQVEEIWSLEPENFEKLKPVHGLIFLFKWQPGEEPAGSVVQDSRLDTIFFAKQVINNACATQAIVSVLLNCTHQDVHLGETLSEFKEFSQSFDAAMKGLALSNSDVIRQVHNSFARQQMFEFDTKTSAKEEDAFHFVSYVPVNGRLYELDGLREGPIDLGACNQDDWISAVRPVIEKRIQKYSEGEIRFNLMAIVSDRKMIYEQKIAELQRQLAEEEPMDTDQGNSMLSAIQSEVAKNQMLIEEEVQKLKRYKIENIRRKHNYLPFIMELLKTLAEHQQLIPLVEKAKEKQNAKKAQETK
Method in brief: as §1

T4 sequence (Q92600 whole entry): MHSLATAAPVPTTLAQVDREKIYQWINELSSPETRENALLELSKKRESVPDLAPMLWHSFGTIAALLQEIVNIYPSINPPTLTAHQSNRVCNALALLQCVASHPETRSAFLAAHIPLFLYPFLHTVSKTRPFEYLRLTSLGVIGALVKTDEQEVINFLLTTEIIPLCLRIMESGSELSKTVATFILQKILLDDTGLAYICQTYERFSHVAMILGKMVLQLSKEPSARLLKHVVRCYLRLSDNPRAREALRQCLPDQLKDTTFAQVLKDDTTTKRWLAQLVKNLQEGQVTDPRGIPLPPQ
T1 sequence (Q14789 whole entry): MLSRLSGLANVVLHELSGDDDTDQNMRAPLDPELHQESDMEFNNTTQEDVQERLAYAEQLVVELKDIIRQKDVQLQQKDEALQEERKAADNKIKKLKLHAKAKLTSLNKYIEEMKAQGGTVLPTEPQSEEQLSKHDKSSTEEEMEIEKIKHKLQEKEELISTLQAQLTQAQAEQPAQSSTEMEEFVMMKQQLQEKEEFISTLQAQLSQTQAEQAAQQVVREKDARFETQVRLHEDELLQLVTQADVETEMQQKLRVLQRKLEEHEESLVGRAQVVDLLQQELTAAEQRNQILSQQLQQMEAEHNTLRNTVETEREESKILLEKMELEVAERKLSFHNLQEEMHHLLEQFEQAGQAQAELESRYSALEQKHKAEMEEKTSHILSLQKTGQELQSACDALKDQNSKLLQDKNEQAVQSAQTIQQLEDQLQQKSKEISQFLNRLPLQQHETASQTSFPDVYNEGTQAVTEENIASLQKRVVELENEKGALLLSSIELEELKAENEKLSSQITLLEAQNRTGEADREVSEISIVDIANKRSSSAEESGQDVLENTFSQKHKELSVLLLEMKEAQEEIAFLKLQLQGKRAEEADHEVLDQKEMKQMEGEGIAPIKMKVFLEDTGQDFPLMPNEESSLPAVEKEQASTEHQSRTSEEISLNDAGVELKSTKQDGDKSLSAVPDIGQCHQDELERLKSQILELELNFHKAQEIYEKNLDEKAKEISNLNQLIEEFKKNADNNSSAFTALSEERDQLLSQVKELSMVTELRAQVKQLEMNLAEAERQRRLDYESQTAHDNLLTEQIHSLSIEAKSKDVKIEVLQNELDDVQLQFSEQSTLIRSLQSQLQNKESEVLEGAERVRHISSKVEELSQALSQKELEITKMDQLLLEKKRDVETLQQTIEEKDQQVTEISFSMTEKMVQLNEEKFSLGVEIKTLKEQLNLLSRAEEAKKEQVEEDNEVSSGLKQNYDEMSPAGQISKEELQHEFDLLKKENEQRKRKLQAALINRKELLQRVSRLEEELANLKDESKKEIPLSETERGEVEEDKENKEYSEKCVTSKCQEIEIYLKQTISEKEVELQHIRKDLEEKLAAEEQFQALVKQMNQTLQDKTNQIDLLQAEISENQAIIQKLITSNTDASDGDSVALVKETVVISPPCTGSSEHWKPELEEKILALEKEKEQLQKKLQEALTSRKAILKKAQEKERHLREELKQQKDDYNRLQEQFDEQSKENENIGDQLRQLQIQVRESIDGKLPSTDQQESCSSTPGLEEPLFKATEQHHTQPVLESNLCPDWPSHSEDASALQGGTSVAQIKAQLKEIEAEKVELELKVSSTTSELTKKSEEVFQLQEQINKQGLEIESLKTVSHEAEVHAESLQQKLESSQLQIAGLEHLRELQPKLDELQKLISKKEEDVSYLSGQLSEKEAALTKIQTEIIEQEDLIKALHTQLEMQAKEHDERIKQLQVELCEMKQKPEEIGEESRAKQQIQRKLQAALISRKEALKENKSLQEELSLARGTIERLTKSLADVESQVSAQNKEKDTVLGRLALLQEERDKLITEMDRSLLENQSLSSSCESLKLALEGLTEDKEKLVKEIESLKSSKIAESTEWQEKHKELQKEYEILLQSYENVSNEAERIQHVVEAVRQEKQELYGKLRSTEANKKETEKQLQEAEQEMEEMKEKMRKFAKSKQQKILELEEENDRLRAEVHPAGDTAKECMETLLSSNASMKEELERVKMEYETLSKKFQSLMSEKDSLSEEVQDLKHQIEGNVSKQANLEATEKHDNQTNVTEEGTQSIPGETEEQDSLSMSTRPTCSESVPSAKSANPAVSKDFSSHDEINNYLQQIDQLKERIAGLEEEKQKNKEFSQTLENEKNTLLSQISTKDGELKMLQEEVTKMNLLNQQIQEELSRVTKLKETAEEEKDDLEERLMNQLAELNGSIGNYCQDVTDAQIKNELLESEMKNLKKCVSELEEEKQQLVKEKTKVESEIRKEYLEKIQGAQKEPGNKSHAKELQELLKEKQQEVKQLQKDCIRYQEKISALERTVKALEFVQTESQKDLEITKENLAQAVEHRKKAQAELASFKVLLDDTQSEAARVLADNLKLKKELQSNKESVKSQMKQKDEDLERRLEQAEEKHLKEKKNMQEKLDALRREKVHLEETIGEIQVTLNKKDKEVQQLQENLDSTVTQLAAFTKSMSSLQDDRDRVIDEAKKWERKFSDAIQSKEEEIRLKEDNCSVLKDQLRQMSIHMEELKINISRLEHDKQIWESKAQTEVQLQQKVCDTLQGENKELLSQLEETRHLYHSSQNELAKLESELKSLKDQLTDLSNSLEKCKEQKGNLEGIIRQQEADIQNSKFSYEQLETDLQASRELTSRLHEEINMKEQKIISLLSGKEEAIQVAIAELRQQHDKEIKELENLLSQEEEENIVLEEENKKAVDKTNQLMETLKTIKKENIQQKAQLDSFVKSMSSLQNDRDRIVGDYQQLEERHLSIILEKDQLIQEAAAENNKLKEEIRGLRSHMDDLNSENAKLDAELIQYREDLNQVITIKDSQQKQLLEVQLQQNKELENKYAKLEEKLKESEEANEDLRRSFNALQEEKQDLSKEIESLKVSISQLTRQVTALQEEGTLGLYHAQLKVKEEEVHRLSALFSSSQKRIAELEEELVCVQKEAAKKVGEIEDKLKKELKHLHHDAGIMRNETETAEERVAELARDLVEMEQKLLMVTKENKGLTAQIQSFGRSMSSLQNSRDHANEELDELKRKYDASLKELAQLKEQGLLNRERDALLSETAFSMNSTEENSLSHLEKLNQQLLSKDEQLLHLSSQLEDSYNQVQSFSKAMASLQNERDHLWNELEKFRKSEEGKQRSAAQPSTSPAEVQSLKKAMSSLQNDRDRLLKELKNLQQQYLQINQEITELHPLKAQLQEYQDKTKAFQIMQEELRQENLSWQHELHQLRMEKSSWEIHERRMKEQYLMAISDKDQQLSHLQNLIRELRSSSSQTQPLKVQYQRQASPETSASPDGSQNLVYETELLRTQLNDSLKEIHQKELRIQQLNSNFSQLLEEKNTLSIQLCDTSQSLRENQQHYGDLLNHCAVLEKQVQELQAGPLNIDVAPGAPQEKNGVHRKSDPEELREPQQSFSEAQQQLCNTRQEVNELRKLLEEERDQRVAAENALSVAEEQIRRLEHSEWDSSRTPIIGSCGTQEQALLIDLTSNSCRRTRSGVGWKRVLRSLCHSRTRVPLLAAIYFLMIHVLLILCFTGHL

Structure (SMILES) | isoTOP-ABPP reactivity ratio at lysine Q14789_K103 [1] | isoTOP-ABPP reactivity ratio at lysine P42345_K2066 [2] | isoTOP-ABPP reactivity ratio at lysine Q9NTK5_K248 (OLA1 Obg-like ATPase 1) | isoTOP-ABPP reactivity ratio at lysine Q92600_K230 [3] | isoTOP-ABPP reactivity ratio at lysine Q12931_K699 [4] | isoTOP-ABPP reactivity ratio at lysine Q9Y5K5_K323 [5] | isoTOP-ABPP ratio (R) at liganded lysine Q14789_K103 [1] | isoTOP-ABPP ratio (R) at liganded lysine P42345_K2066 [2] | isoTOP-ABPP ratio (R) at liganded lysine Q9NTK5_K248 (OLA1 Obg-like ATPase 1) | isoTOP-ABPP ratio (R) at liganded lysine Q92600_K230 [3] | isoTOP-ABPP ratio (R) at liganded lysine Q12931_K699 [4] | isoTOP-ABPP ratio (R) at liganded lysine Q9Y5K5_K323 [5] | also measured
O=C(Oc1ccc([N+](=O)[O-])cc1[N+](=O)[O-])C(c1ccccc1)c1ccccc1 [fragment 30, 2,4-Dinitrophenyl 2,2-diphenylacetate] | 1.4 | 3.5 | 1.0 | 1.6 | 4.1 | 1.1 |  |  |  |  |  |  | 
O=C(Oc1ccc([N+](=O)[O-])cc1[N+](=O)[O-])c1cc(C(F)(F)F)cc(C(F)(F)F)c1 [fragment 31, 2,4-Dinitrophenyl 3,5-bis(trifluoromethyl)benzoate] | 0.9 | 1.1 | 1.0 | 1.0 | 1.0 | 1.0 |  |  |  |  |  |  | 
Cn1cc(CC(=O)Oc2ccc([N+](=O)[O-])cc2[N+](=O)[O-])c2ccccc21 [fragment 32, 2,4-Dinitrophenyl 2-(1-methyl-1H-indol-3-yl)acetate] | 7.0 | 8.0 | 1.0 | 10.2 | 2.0 | 1.0 |  |  |  |  |  |  | 
COc1cc(CCC(=O)Oc2ccc([N+](=O)[O-])cc2[N+](=O)[O-])cc(OC)c1OC [fragment 33, 2,4-Dinitrophenyl 3-(3,4,5-trimethoxyphenyl)propanoate] | 1.0 | 1.1 | 1.0 | 2.5 | 1.5 | 0.8 |  |  |  |  |  |  | 
O=C(Oc1ccc([N+](=O)[O-])cc1[N+](=O)[O-])C1CCN(C(=O)OCc2ccccc2)CC1 [fragment 34, 1-Benzyl 4-(2,4-dinitrophenyl) piperidine-1,4-dicarboxylate] |  |  |  |  |  |  | 0.9 | 1.1 | 0.9 | 0.8 | 1.8 | 0.9 | 
O=C(Oc1ccc([N+](=O)[O-])cc1[N+](=O)[O-])c1ccc2ccccc2n1 [fragment 35, 2,4-Dinitrophenyl quinoline-2-carboxylate] |  |  |  |  |  |  | 0.9 | 1.1 | 1.0 | 0.9 | 0.9 | 1.0 | 
O=C(CCc1coc2cc(F)ccc2c1=O)Oc1ccc([N+](=O)[O-])cc1[N+](=O)[O-] [fragment 36, 2,4-Dinitrophenyl 3-(7-fluoro-4-oxo-4H-chromen-3-yl)propanoate] |  |  |  |  |  |  | 0.9 | 3.0 | 0.8 | 2.5 | 1.7 | 0.8 | 
O=C(Oc1ccc([N+](=O)[O-])cc1[N+](=O)[O-])c1ccc(-c2ccccc2)cc1 [fragment 37, 2,4-Dinitrophenyl [1,1′-biphenyl]-4-carboxylate] |  |  |  |  |  |  | 0.9 | 1.0 | 0.9 | 0.8 | 0.9 | 0.9 | 
O=C(CC12CC3CC(CC(C3)C1)C2)Oc1ccc([N+](=O)[O-])cc1[N+](=O)[O-] [fragment 38, 2,4-Dinitrophenyl 2-(adamantan-1-yl)acetate] |  |  |  |  |  |  | 0.9 | 1.1 | 0.9 | 0.9 | 1.4 | 0.9 | 
O=C(Oc1ccc([N+](=O)[O-])cc1[N+](=O)[O-])c1ccccc1Nc1cccc(C(F)(F)F)c1 [fragment 40, 2,4-Dinitrophenyl 2-((3-(trifluoromethyl)phenyl)amino)benzoate] |  |  |  |  |  |  | 0.9 | 0.8 | 0.9 | 0.9 | 0.9 | 1.0 | 
CC(=O)Oc1ccc([N+](=O)[O-])cc1[N+](=O)[O-] [fragment 43, 2,4-Dinitrophenyl acetate] |  |  |  |  |  |  | 1.0 | 1.6 | 1.0 | 6.8 | 1.0 | 1.0 | 
N#Cc1ccc(C(=O)Oc2ccc([N+](=O)[O-])cc2[N+](=O)[O-])cc1 [fragment 44, 2,4-Dinitrophenyl 4-cyanobenzoate] |  |  |  |  |  |  |  |  |  |  |  |  | isoTOP-ABPP ratio, lysine Q14789_K103 [1]: 0.9; isoTOP-ABPP ratio, lysine P42345_K2066 [2]: 1.7; isoTOP-ABPP ratio, lysine Q9NTK5_K248 (OLA1 Obg-like ATPase 1): 1.1; isoTOP-ABPP ratio, lysine Q92600_K230 [3]: 1.0; isoTOP-ABPP ratio, lysine Q12931_K699 [4]: 0.9; isoTOP-ABPP ratio, lysine Q9Y5K5_K323 [5]: 0.9
O=C(CCc1ccc2c(c1)OCO2)Oc1ccc([N+](=O)[O-])cc1[N+](=O)[O-] [fragment 45, 2,4-Dinitrophenyl 3-(benzo[d][1,3]dioxol-5-yl)propanoate] |  |  |  |  |  |  |  |  |  |  |  |  | isoTOP-ABPP ratio, lysine Q14789_K103 [1]: 1.0; isoTOP-ABPP ratio, lysine P42345_K2066 [2]: 1.1; isoTOP-ABPP ratio, lysine Q9NTK5_K248 (OLA1 Obg-like ATPase 1): 1.0; isoTOP-ABPP ratio, lysine Q92600_K230 [3]: 1.7; isoTOP-ABPP ratio, lysine Q12931_K699 [4]: 1.4; isoTOP-ABPP ratio, lysine Q9Y5K5_K323 [5]: 1.5

Source: US20210255193A1, “LYSINE REACTIVE PROBES AND USES THEREOF” (The Scripps Research Institute, priority 2017, published 2021)
